Values after ≈ are worked out from the molar mass of the structure shown.
What was measured:
[1] = tested on: HT-29, colon adenocarcinoma cell; assay: Anti-cancer activity, MTT assay on HT-29 (Test Example 9); type: cell-based; conditions: for IC100 / IC50: 72 hours; for IC50: Homo sapiens; for IT50: drug added at IC100
Experimental: (§1) In the same manner as in Test Example 3, anti-cancer activity was measured. SK-BR-3, which is a human-derived breast cancer cell, and HT-29, which is a colon adenocarcinoma cell, were used. Specifically, cells were seeded to a 96 well-plate at 5000 cells/well, and incubated for 24 hours. Then, PTX, gPTX, gPTX-L, and gPTX-IL were separately added at different concentrations, followed by incubation.
(§2) 72 hours later, the percentage of cell viability was calculated by an MTT assay. First, the concentration (IC50) at which 50% of the cells die was obtained from the survival curve. Subsequently, the time (IT50) at which 50% of the cells die was obtained from the survival curve. After the cells were seeded, PTX, gPTX, gPTX-L, or gPTX-IL was added at a concentration attaining IC100, which was obtained from the survival curve. Incubation was then performed for 1, 2, 6, 12, 24, 48, or 72 hours, and then medium exchange was performed. 72 hours after the drug addition, the MTT assay was performed in the same manner as in the above experiment to obtain the survival rate, and calculate the IT50 therefrom.

[2] = tested on: SK-BR-3, human-derived breast cancer cell; assay: Anti-cancer activity, MTT assay (Test Example 3); type: cell-based; conditions: PTX, gPTX dissolved in DMSO, liposomes prepared with gPTX in 40% ethylene glycol solution; for IC50: Homo sapiens
Experimental: IC50 of each of the PTX and gPTX dissolved in DMSO, and gPTX-L and gPTX-IL prepared by using gPTX dissolved in a 40% (volume) ethylene glycol solution was measured by an MTT assay. As a test target cell, SK-BR-3, which is a human-derived breast cancer cell, was used. IT50 was also calculated. IT50 indicates the half of time required for attaining the drug concentration at which all of the cells die, and can be easily calculated based on the survival curve obtained by plotting the percentage of cell viability to the time axis.

[3] = Solubility in mixed solvent Cremophor EL:ethanol:PBS (pH 7.4) 12:12:76 (Test Example 1); type: physicochemical; conditions: for solubility: Cremophor EL:ethanol:PBS 12:12:76 mixed solvent, pH 7.4, aqueous with cosolvent or surfactant or cyclodextrin, ethanol, Cremophor EL, PBS pH 7.4 (12:12:76); for Concentration at which dissolved: Cremophor:ethanol:PBS (pH 7.4) 12:12:76
Experimental: Powdery gPTX and paclitaxel (hereinbelow, referred to as PTX in the Examples) produced by the method disclosed in NPL 1 were individually weighed in predetermined amounts, followed by addition of ethanol (120 μL) and mixing using a vortex. Cremophor® EL (available from Wako Pure Chemical Industries. Ltd.) (120 μL) was further mixed with each solution liquid, and then PBS (pH 7.4, 760 μL) was mixed. The solubility of each of the gPTX and PTX was confirmed.

ICR-nu/nu mouse = assay: Body weight shift and survival in HT-29 bearing mice (Test Example 11); type: in vivo; conditions: total dose of gPTX 150 mg/kg; N=4
Description: (§3) HT-29 cells were subcutaneously administered at 3.0×10^6 cells to each ICR-nu/nu mouse (male, 5 weeks old). When the tumor volume became about 50 to 200 mm^3, the above gPTX, the gPTX-L produced in Test Example 7, the gPTX-IL produced in Test Example 9, trastuzumab, the liposome (empty L) encapsulating no gPTX and having no antibody (trastuzumab) produced in Test Example 9, the liposome (empty IL) encapsulating […] and having an antibody (trastuzumab) produced in Test Example 9, a CEP buffer, or PBS was administered via tail vein two times at an interval of 3 hours (N=4). The dose per each was 200 μl/20 g. The total dose of gPTX was 150 mg/kg, and the total dose of trastuzumab was 200 mg/kg. The tumor volume shift after administration was observed. […] The tumor volume was calculated from the formula (3) below. Tumor volume=(tumor smallest diameter^2×tumor longest diameter)/2 (3)
The body weight shift and the survival rate in each group were measured. FIGS. 6 to 9 show the results.

[4] = Solubility in 10 mM phosphate buffer containing 10 to 40% ethylene glycol (Test Example 1); type: physicochemical; conditions: aqueous with cosolvent or surfactant or cyclodextrin
Experimental: In all cases, gPTX was mixed so that the concentration became 1 mg/mL.

HT-29 tumor = assay: In vivo anti-cancer activity, tumor volume (Test Example 11); set-up: species or system ICR-nu/nu mouse; conditions: tail vein two times, interval 3 hours; total gPTX 150 mg/kg, trastuzumab 200 mg/kg; N=4
Description: as §3

BALB/c mouse = conditions: in vivo
Experimental: Specifically, gPTX, gPTX-L, a CEP buffer (Cremophor:ethanol:ultra-pure water=12:12:76; volume ratio), or PBS was administered via tail vein to each BALB/c mouse (female, 6 weeks old) two times with an interval of three hours (N=4). The dose per each was 200 μl/20 g. The total dose of gPTX was 150 or 100 mg/kg in view of gPTX. Observation over time was performed during and after the administration.

[5] = tested on: SK-BR-3, human-derived breast cancer cell; assay: Anti-cancer activity, MTT assay on SK-BR-3 (Test Example 9); type: cell-based; conditions: for IC50: Homo sapiens; for IC50 / IT50: SK-BR-3; for IC50 / IC100: SK-BR3, 72 hours; for IT50: drug added at IC100
Experimental: as §1, §2

[6] = Encapsulation efficiency and loading efficiency in liposome by HPLC (Test Example 2); type: physicochemical; conditions: drug solution in 40% EG (1 mg/mL), comparative example
Experimental: Subsequently, after the eggplant flask was immersed in a hot bath at 60° C. for five minutes, a gPTX solution (1 ml) (Cremophor:ethanol:ultra-pure water=12:12:76, volume ratio) adjusted to a concentration of 20 mg/ml, or a PTX solution (Cremophor:ethanol:ultra-pure water=12:12:76, volume ratio) at a concentration of 2 mg/ml was added thereto to dissolve the lipid film, thus preparing a multilamellar vesicle (MLV).
In a comparative example, the above-mentioned 1 mg/ml gPTX solution (10 mM phosphate buffer containing 40% (volume) ethylene glycol) was used in place of the 20 mg of gPTX solution to encapsulate gPTX in a liposome.
The efficiency of paclitaxel monoglycoside encapsulated in the obtained liposome or immunoliposome was calculated as follows. First, the standard curve of each of the gPTX and PTX was obtained. […]
Next, 0.1% Triton X-100 ( 1/10 volume) was added to a prepared liposome, and the liposome was broken by sonication. Thereafter, the solution (10 μl) was measured by HPLC, and the encapsulated drug amount was obtained using the standard curve. […]
Using the following formulae (1) and (2), the encapsulation efficiency (EE) and loading efficiency (LE) were calculated based on the obtained drug amount. […]

| Structure (SMILES) | IC100 [1] [nM] | IC50 [1] [nM] | IT50 [1] [h] | IC50 [2] [nM] | IT50 [2] [h] | solubility ([3]; Concentration 2 mg/ml) [µg/mL] | solubility ([3]; Concentration 10 mg/ml) [µg/mL] | solubility ([3]; Concentration 20 mg/ml) [µg/mL] | Concentration at which dissolved [3] | IC50 [5] [nM] | IC100 [5] [nM] | IT50 [5] [h] | further results |
| --- | --- | --- | --- | --- | --- | --- | --- | --- | --- | --- | --- | --- | --- |
| CC(=O)O[C@H]1C(=O)[C@@]2(C)C([C@H](OC(=O)c3ccccc3)[C@@]3(O)CC1=C(C)C(OC(=O)[C@H](O)[C@@H](NC(=O)c1ccccc1)c1ccccc1)C3)[C@]1(OC(C)=O)CO[C@@H]1C[C@H]2OC(=O)COC1OC(CO)C(O)C(O)C1O (stereo partly drawn) [gPTX, 7-α-glucosyloxyacetylpaclitaxel] | 50 | 11 ± 0.8 | 9.6 | 46 | 18.7 | > 20000 | > 20000 | > 20000 | 20000 µg/mL | 18.9 ± 1.1 | 100 | 8.3 | solubility ([3]; Concentration 30 mg/ml): < 30000 µg/mL; Body weight shift (ICR-nu/nu mouse): remarkable body weight loss; Deaths after administration (ICR-nu/nu mouse): two mice died in three hours after the administration, and one died one week after the administration; solubility ([4]; Ethylene glycol (EG) 10%, 10 mM phosphate buffer, read-out: Solubility of 1 mg/mL gPTX): < 1000 µg/mL; solubility ([4]; Ethylene glycol (EG) 20%, 10 mM phosphate buffer, read-out: Solubility of 1 mg/mL gPTX): < 1000 µg/mL; solubility ([4]; Ethylene glycol (EG) 30%, 10 mM phosphate buffer, read-out: Solubility of 1 mg/mL gPTX): < 1000 µg/mL; solubility ([4]; Ethylene glycol (EG) 40%, 10 mM phosphate buffer, read-out: Solubility of 1 mg/mL gPTX): > 1000 µg/mL; solubility ([4]; PBS containing 40% (volume) ethylene glycol, read-out: Solubility of gPTX): ~1000 µg/mL (≈ 956 µM); Tumor growth inhibition effect (tumor volume) (HT-29 tumor): remarkably excellent anti-tumor growth inhibition effect; Body weight change (FIG. 4) (BALB/c mouse): significant body weight loss; Mice dead one day after the administration (FIG. 3) (BALB/c mouse): three |
| CC(=O)O[C@H]1C(=O)[C@@]2(C)[C@H]([C@H](OC(=O)c3ccccc3)[C@]3(O)C[C@H](OC(=O)[C@H](O)[C@@H](NC(=O)c4ccccc4)c4ccccc4)C(C)=C1C3(C)C)[C@]1(OC(C)=O)CO[C@@H]1C[C@@H]2O [PTX, paclitaxel] | 10 | 1.3 ± 0.5 | 11.9 | 5.91 | 15.9 | > 2000 | < 3000 | < 3000 | about 2 mg/ml | 5.5 ± 1.3 | 30 | 9.8 | solubility ([3]; Concentration 3 mg/ml): < 3000 µg/mL; EE (encapsulation efficiency) [6]: not encapsulated in the liposome |

From patent publication US10682330B2, “Method for producing liposome encapsulating paclitaxel monoglycoside and/or docetaxel monoglycoside” (ENSUIKO SUGAR REFINING CO., LTD., priority 2012, dated 2020)
